The term EC50 denotes the concentration at which the effect is half-maximal. Broadly, the AC50 is the midpoint of the concentration-response curve, whichever way the signal moves. The CC50 is the concentration giving 50% cytotoxicity.

21 molecules from ChEMBL document CHEMBL1201862, “PubChem BioAssay data set” (2004) can be followed below.

Each structure is given as a SMILES string. The source made the active and inactive calls. Rule as the data show it, for most assays here: actives have a measured EC50 and inactives only a lower limit.

For assay [1], the target named is T1, RNA-binding protein pos-1 (Caenorhabditis elegans, UniProt G5EF15).
T1 sequence (G5EF15 whole entry): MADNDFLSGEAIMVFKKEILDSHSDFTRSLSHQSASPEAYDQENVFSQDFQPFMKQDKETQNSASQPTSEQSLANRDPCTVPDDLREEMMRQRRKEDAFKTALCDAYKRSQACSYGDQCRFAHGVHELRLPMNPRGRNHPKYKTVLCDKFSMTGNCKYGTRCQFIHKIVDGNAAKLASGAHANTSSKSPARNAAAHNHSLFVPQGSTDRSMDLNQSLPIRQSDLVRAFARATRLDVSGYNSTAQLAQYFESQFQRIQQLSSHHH
In words: disruptors of C. elegans POS-1 RNA interaction – biochemical, fluorescence polarization, dose response (AID 1964).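 Also: purified POS-1 fused to maltose binding protein made in E. coli; potency of compounds blocking POS-1 binding to fluorescent RNA.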 For orientation: In fluorescence polarisation assays a small probe gives low polarisation when free and higher when bound to something large.

Assay [2] deals with T2, Zinc finger protein mex-5 (Caenorhabditis elegans, UniProt Q9XUB2).
T2 sequence (Q9XUB2 whole entry): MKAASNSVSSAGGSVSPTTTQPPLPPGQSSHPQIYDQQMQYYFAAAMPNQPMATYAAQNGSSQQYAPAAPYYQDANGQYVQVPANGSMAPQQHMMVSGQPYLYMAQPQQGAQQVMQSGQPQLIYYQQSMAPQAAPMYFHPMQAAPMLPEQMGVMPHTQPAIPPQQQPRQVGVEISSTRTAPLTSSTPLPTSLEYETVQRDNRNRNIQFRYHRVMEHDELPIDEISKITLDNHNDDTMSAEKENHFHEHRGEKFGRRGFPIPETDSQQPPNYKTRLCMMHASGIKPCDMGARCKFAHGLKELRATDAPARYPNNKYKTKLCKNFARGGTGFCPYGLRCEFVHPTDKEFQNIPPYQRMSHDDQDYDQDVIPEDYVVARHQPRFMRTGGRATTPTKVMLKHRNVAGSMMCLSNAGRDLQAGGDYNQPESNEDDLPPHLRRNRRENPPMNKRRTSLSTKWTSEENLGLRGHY
Put plainly: potency of MEX-5 RNA-binding blockers – biochemical, C. elegans, fluorescence polarization, dose response (AID 1960).

The target in assay [3] is T3, Heat shock factor protein 1 (Mus musculus, UniProt P38532).
T3 sequence (P38532 whole entry): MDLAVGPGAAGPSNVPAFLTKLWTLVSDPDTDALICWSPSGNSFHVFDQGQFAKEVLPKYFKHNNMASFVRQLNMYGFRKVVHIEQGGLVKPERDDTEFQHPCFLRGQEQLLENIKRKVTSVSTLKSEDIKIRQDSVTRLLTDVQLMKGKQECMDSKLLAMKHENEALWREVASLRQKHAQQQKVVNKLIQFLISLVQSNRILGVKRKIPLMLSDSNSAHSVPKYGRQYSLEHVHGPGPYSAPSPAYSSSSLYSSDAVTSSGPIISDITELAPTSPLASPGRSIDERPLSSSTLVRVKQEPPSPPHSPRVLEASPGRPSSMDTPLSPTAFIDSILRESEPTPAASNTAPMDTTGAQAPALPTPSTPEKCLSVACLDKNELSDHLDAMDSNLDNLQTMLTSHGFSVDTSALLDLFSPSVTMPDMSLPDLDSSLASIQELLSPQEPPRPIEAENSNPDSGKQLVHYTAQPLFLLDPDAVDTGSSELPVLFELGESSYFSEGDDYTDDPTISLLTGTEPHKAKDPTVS
In words: decrease of HSF1-responsive luciferase luminescence – cell-based, NIH3T3, dose retest, confirmation (AID 2382).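 Also: NIH3T3 fibroblasts with HSF1-driven luciferase reporter stressed by proteasome inhibitor MG132; luminescence from HSF1-driven luciferase expression after 8 hours of MG132 stress.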 Type of assay: functional.

Assay [4] concerns the target T4, Replicative DNA helicase DnaB (Mycobacterium tuberculosis, UniProt P9WMR3).
T4 sequence (P9WMR3 whole entry): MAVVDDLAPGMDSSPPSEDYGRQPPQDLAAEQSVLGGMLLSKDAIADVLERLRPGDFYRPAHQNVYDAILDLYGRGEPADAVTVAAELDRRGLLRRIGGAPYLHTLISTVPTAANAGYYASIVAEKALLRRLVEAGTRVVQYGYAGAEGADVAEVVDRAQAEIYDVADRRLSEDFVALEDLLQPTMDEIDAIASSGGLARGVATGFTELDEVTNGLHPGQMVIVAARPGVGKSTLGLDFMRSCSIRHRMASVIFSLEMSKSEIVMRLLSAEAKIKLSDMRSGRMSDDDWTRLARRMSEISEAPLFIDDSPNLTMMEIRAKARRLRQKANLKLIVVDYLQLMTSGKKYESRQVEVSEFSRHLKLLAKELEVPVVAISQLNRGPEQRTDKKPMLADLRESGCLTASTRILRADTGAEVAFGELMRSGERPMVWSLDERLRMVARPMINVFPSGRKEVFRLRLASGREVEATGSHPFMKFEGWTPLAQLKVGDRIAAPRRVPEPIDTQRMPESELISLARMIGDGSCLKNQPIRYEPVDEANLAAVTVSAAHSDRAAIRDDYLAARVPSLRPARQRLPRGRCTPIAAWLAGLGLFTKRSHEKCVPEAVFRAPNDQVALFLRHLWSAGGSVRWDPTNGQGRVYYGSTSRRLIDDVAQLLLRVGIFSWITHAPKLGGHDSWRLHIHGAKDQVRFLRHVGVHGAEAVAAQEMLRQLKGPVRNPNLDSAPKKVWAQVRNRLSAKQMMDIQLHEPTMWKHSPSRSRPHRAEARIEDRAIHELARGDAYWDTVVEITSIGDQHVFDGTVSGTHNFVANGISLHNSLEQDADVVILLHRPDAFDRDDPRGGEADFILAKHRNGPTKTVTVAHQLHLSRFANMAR
Put plainly: DnaB intein splicing inhibitors, dose response, biochemical, cell-free fluorescence (AID 449749). Type of assay: functional.

Assay [5] concerns the target T5, Protein RecA (Mycobacterium tuberculosis, UniProt P9WHJ3).
T5 sequence (P9WHJ3 whole entry): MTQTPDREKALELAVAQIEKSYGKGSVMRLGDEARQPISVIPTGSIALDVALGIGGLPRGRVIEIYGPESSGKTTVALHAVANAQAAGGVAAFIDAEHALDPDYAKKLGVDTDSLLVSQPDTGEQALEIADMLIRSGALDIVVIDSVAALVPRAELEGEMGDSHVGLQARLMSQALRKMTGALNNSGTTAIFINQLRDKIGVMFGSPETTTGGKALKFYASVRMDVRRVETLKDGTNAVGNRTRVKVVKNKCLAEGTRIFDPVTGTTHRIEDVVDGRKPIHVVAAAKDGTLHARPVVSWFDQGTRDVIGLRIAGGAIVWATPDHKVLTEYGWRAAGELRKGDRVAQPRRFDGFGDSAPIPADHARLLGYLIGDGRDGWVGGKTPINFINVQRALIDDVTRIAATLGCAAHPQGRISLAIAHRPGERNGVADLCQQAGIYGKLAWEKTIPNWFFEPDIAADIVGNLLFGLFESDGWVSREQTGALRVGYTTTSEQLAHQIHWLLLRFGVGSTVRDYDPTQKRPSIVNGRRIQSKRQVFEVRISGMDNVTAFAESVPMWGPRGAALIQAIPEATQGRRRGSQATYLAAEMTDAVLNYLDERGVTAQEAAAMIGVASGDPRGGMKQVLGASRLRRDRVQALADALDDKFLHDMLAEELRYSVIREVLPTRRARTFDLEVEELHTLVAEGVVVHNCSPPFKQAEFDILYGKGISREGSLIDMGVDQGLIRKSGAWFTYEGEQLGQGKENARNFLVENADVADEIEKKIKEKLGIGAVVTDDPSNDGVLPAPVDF
In words: Fluorescence Cell-Free Homogeneous Dose Retest to Identify Inhibitors of RecA-Intein Splicing Activity. [Related pubchem assays (depositor defined):AID2097, AID2223, AID489010, AID492950]. Type of assay: functional.

The target in assay [6] is Paired box protein Pax-8 (Homo sapiens, UniProt Q06710). In words: PAX8 transcriptional activity inhibition in RMG-I – RMG-I cells, luciferase, cherry-pick, dose response (AID 687027).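 Also: luciferase reporter driven by Pax8 target thyroperoxidase promoter measured by SteadyGlo luminescence.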 Type of assay: functional, cell-based.
Assay [7] is described as follows: Luminescence Cell-Based Dose Confirmation HTS to Identify Activators of 5'UTR Stem-Loop Driven Alpha-Synuclein mRNA Translation in H4 Neuroglioblastoma Cells. [Related pubchem assays: 1829 (Project Summary), 1814 (Primary HTS)]. It counts as functional.
Assay [8] is described as follows: Luminescence Cell-Based Dose Response HTS to Identify Activators of Luciferase Translation or Activity in H4 […] Cells. [Related pubchem assays: 1829 (Project Summary), 1814 (Primary HTS)]. Type of assay: functional.
For assay [9], the system named is H4. In words: Luminescence Cell-Based Dose Response HTS to Identify Activators of 5'UTR Stem-Loop Driven Prion Protein mRNA Translation in H4 Neuroglioblastoma Cells. [Related pubchem assays: 1829 (Project Summary), 1814 (Primary HTS)]. It counts as functional. Conditions: Homo sapiens.
Assay [10] can be described thus: viability of uninfected HEp-2 cells – cell-based, HTS, cytotoxicity control for RSV inhibitor project, dose response (AID 2410). Type of assay: functional. The settings on record: human respiratory syncytial virus.

Paired box protein Pax-8, sequence (Q06710 whole entry): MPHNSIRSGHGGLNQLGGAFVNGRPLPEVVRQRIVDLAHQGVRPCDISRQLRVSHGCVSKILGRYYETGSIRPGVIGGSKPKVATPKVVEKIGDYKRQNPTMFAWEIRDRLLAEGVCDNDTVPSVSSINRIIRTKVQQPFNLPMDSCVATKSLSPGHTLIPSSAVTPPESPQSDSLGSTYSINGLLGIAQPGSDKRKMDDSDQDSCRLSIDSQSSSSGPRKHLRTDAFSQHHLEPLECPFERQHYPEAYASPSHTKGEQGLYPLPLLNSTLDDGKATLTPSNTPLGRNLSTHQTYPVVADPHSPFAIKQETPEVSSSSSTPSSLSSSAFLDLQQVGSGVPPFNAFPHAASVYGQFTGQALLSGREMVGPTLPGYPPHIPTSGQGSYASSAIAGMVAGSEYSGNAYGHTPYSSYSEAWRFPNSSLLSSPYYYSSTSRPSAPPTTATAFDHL

`COc1cc2c(cc1/C=C1/NC(=O)N(c3ccccc3)C1=O)OCO2`: the EC50 in assay [1] and in assay [2] was > 300 µM (not active) in each case.

With `Cc1ccc(NCC(=O)N/N=C/c2ccc(C(=O)O)cc2)cc1`, the EC50 in [1] and in assay [2] was > 300 µM (not active) each time.

For the molecule `Cc1c(C(=O)Nc2ccc(F)cc2)sc2ncn(CC(=O)N3CCCCC3)c(=O)c12`, the EC50 in [3] is > 195 µM (not active). Turning to `N#CC(C#N)=NNc1ccc(S(=O)(=O)N2CCCC2)cc1`, the AC50 in assay [4] is 6.9 µM (active). The EC50 in assay [5] was 23.9 µM (active). On to `CCCCC1=CC2=C(c3ccco3)C(=O)C(C)(OC(=O)c3ccc(OC)cc3)C(=O)C2=CN1C1CC1` (configuration not stated), for which the EC50 in assay [1] and in assay [2] was > 300 µM (not active) each time. As to `COc1ccc(Nc2nc3ccccc3nc2NS(=O)(=O)c2cccs2)cc1`, the EC50 in [1] is > 300 µM (inconclusive); in assay [2], 34.8 µM (active). Take `CC1=NN(c2ccccc2)C(=O)C1N=Nc1ccc(S(N)(=O)=O)cc1` (configuration not stated): the EC50 in assay [3] was > 195 µM (not active). For the molecule `Cc1ccc(S(=O)(=O)N(C)C[C@H]2Oc3ccc(NC(=O)Nc4ccc(C(F)(F)F)cc4)cc3CC(=O)N([C@@H](C)CO)C[C@H]2C)cc1`, the AC50 in assay [6] was 9.45 µM (active).

With `Cc1ccc(/C=N/NC(=O)c2nnn(-c3nonc3N)c2CN(C)C2CCCCC2)cc1`, the EC50 in [3] is reported as > 195 µM (not active). Take `CCc1cc(=O)oc2cc(C)cc(OC(C)C(=O)O)c12` (configuration not stated): the EC50 in assay [1] and in [2] was > 300 µM (not active) each time.

For `CCOC(=O)c1ccc(NC(=O)C2C3C=CC(O3)C2C(=O)O)cc1` (configuration not stated), the EC50 in assay [7] is on record as > 60 µM (not active); in assay [8], > 120 µM (not active); in [9], > 120 µM (not active); in assay [3], > 195 µM (not active). With `CC1(C)CC(=O)C2=C(C1)N(Cc1ccccc1)C(=O)C2(NC(=O)C(C)(C)C)C(F)(F)F` (configuration not stated), the EC50 in assay [3] is reported as > 195 µM (not active). In the case of `CCOC(=O)c1cnc2ccc(C)cc2c1Sc1ccccc1`, the AC50 in assay [4] is 5.63 µM (active). Moreover, the EC50 in assay [5] is 5.87 µM (active). Take `COC(CN(C(=O)CCl)C(C(=O)NC1CCCCC1)c1ccc(C)cc1)OC` (configuration not stated): the AC50 in [4] was > 380 µM (inactive). Further, the EC50 in assay [5] was 7 µM (active). Turning to `CCN(CC)c1ccc(C=C2C(=O)OC(C)(C(C)(C)C)OC2=O)cc1` (configuration not stated), the EC50 in [1] and in [2] was > 300 µM (inconclusive) throughout. For the molecule `CCOc1ccc(/C=N/NC(=O)c2ccc(Cn3cc([N+](=O)[O-])cn3)o2)cc1`, the EC50 in [3] is given as > 195 µM (not active).

As for `O=C(CSc1nnc(COc2ccc3c(c2)CCCC3)o1)Nc1ccc(F)cc1`, the half-maximal effective concentration (EC50) in [3] is listed as > 195 µM (not active).

With `O=C(N1CCOCC1)N1CCC(n2nnc3cc(F)ccc32)CC1`, the EC50 in assay [1] was 39.2 µM (active); in assay [2] it was 46.7 µM (inconclusive). As to `COc1ccc(Cl)cc1NC(=O)CSc1nc2ccsc2c(=O)n1CC1CCC(C(=O)O)CC1` (configuration not stated), the CC50 in assay [10] was > 50 µM (active). For the same molecule, in assay [3], the EC50 is given as > 195 µM (not active). Regarding `CC(c1ccc(O)cc1)(c1ccc(O)cc1)c1ccc(CCBr)cc1`, the CC50 in assay [10] is 17.4 µM (active). In addition, in assay [4], the AC50 is 46.4 µM (active). The EC50 in [5] was 9.45 µM (active). As to `COc1cc(SC)ccc1C(=O)NCC1CCCO1` (configuration not stated), in assay [3], the EC50 is listed as > 195 µM (not active).
